Laboratory results as given in patent publication US20110059948A1, “QUINOLINE, NAPHTHALENE AND CONFORMATIONALLY CONSTRAINED QUINOLINE OR NAPHTHALENE DERIVATIVES AS ANTI-MYCOBACTERIAL AGENTS” (priority 2008, published 2011).
≈ marks a conversion by molar mass, not a printed value. Where two headings read alike, the source gives them in different places.

Experiments:
[1] = test system: M. kansasii; test: In vitro agar dilution assay (MIC); format: cell-based, Mycobacterium kansasii; conditions: n = 2 strains tested
[2] = test system: M. fortuitum; test: In vitro agar dilution assay (MIC); format: cell-based, Mycobacterium fortuitum; conditions: n = 2 strains tested
[3] = test system: clinical isolates generally susceptible to common tubercular agents; test: microbe, parasite or virus in culture; format: cell-based, Mycobacterium tuberculosis; conditions: for MIC M. tuberculosis Sensitive (n = 20): clinical isolates, n = 20 strains tested
[4] = test system: M. tuberculosis H37RV ATCC 27294; test: In vitro growth inhibition assay, BACTEC 460 TB system; format: cell-based, Mycobacterium tuberculosis
[5] = test system: M. avium-intracellular Complex; test: In vitro agar dilution assay (MIC); format: cell-based, Mycobacterium avium-intracellular complex; conditions: for MIC M. avium-intracellulare Complex (n = 10): n = 10 strains tested
[6] = test system: M. Tuberculosis strain (H37RV); test: In vitro agar dilution assay (MIC, NCCLS-M24-T2); format: cell-based, Mycobacterium tuberculosis; conditions: for MIC: Mycobacterium tuberculosis, ATCC 27294 / H37Rv, read-out: MIC against M. tuberculosis (H37RV ATCC27294)
[7] = test system: M. Tuberculosis strain (H37RV); conditions: Janssen WO2004/011436; cited from earlier work
[8] = agar dilution, Middlebrook 7H10

ON=C1c2ccccc2-c2c1c(N1CCN(c3ccccn3)CC1)nc1ccc(Br)cc21 [Example 134]
MIC M. kansasii (n = 2) [1]: >8.0 µg/mL | MIC M. fortuitum (n = 2) [2]: >8.0 µg/mL | MIC M. tuberculosis Sensitive (n = 20) [3]: <6.25 µg/mL | mark “a” at the serial number (99% inhibition at <4 μg/ml), Tables 5A-N, 6-10 [4]: 134a (Compounds marked with “a” have shown 99% inhibition at <4 μg/ml) | MIC M. avium-intracellulare Complex (n = 10) [5]: <6.25 µg/mL | MIC against M. tuberculosis (H37RV ATCC27294) [6, 8]: <6.25 µg/mL

CC(O)c1cc(F)ccc1Oc1nc2ccc(NC(=O)Nc3cccc([N+](=O)[O-])c3)cc2cc1Cc1ccccc1 (stereo not drawn) [Example 31]
MIC M. kansasii (n = 2) [1]: >8.0 µg/mL | MIC M. fortuitum (n = 2) [2]: >8.0 µg/mL | MIC M. tuberculosis Sensitive (n = 20) [3]: <6.25 µg/mL | mark “a” at the serial number (99% inhibition at <4 μg/ml), Tables 2-4 [4]: 31a (Compounds marked with “a” have shown 99% inhibition at <4 μg/ml) | MIC M. avium-intracellulare Complex (n = 10) [5]: >8.0 µg/mL | MIC against M. tuberculosis (H37RV ATCC27294) [6, 8]: <3.125 µg/mL

COC(=O)C(C(=O)N1CCOCC1)C(c1ccccc1)c1cc2cc(Br)ccc2nc1OC (stereo not drawn) [Example 1] [listing 1 of 2 here]
melting point: 206 to 208 °C

COc1nc2ccc(Br)cc2cc1C(Nc1ccc2oc(=O)ccc2c1)c1ccccc1 (racemic)
melting point: 88 to 89 °C

CC(c1cc(F)ccc1Oc1nc2ccc(-n3cc(-c4ccccc4)nn3)cc2cc1Cc1ccccc1)n1ccnc1 (stereo not drawn) [Example 23]
MIC M. kansasii (n = 2) [1]: <4.0 µg/mL | MIC M. fortuitum (n = 2) [2]: <4.0 µg/mL | MIC M. tuberculosis Sensitive (n = 20) [3]: <3.125 µg/mL | mark “a” at the serial number (99% inhibition at <4 μg/ml), Tables 2-4 [4]: 23a (Compounds marked with “a” have shown 99% inhibition at <4 μg/ml) | MIC M. avium-intracellulare Complex (n = 10) [5]: <4.0 µg/mL | MIC against M. tuberculosis (H37RV ATCC27294) [6, 8]: <3.125 µg/mL

COc1nc2ccc(Br)cc2cc1C(c1ccccc1)n1cccn1 (racemic)
melting point: 142 to 144 °C

COC(=O)C(C(=O)N1CCOCC1)C(c1ccccc1)c1cc2cc(Br)ccc2nc1OC (stereo not drawn) [Example 1] [listing 2 of 2 here]
melting point: 187.5 to 189.5 °C

COc1nc2ccc(Br)cc2c2c1C(C)(OCC(O)Cn1ccc(-c3ccc(C(F)(F)F)cc3)n1)c1ccccc1-2 (stereo not drawn)
melting point: 65 to 67 °C

COc1cccc(NC(=O)Nc2ccc3nc(Oc4ccc(F)cc4C(C)O)c(Cc4ccccc4)cc3c2)c1 (stereo not drawn) [Example 26]
MIC M. kansasii (n = 2) [1]: <4.0 µg/mL | MIC M. fortuitum (n = 2) [2]: <4.0 µg/mL | MIC M. tuberculosis Sensitive (n = 20) [3]: <3.125 µg/mL | mark “a” at the serial number (99% inhibition at <4 μg/ml), Tables 2-4 [4]: 26a (Compounds marked with “a” have shown 99% inhibition at <4 μg/ml) | MIC M. avium-intracellulare Complex (n = 10) [5]: <4.0 µg/mL | MIC against M. tuberculosis (H37RV ATCC27294) [6, 8]: <3.125 µg/mL

CC(c1cc(F)ccc1Oc1nc2ccc(-n3cc(-c4ccccc4)nn3)cc2cc1Cc1ccccc1)n1ccnc1 (stereo not drawn)
melting point: 118 to 120 °C

CC(O)c1cc(F)ccc1Oc1nc2ccc(NC(=O)Nc3cccc([N+](=O)[O-])c3)cc2cc1Cc1ccccc1 (stereo not drawn)
melting point: 217 to 219 °C

COc1nc2ccc(Br)cc2cc1C(c1ccccc1)[C@@](O)(CCN(C)C)c1cccc2ccccc12 (stereo partly drawn) [Example R207910]
MIC value against the M. Tuberculosis strain (H37RV) [7]: 0.07 µg/mL (≈ 0.126 µM)

COc1nc2ccc(Br)cc2cc1C(c1ccccc1)n1ccnc1 (racemic)
melting point: 161 to 162 °C

CO[C@H]1/C=C/O[C@@]2(C)Oc3c(C)c(O)c4c(O)c(c(/C=N/N5CCN(C)CC5)c(O)c4c3C2=O)NC(=O)/C(C)=C\C=C\[C@H](C)[C@H](O)[C@@H](C)[C@@H](O)[C@@H](C)[C@H](OC(C)=O)[C@@H]1C [Refampin, Rifampicin, reference compound]
MIC [6]: 0.25 µg/mL (≈ 0.304 µM)

NNC(=O)c1ccncc1 [Isoniazid, reference compound]
MIC ([1]; Mycobacterium kansasii, read-out: MIC M. kansasii (n = 2)): > 16 µg/mL | MIC ([2]; Mycolicibacterium fortuitum, read-out: MIC M. fortuitum (n = 2)): > 16 µg/mL | MIC ([3]; Mycobacterium tuberculosis, read-out: MIC M. tuberculosis Sensitive (n = 20)): 0.25 µg/mL (≈ 1.82 µM) | MIC ([5]; Mycobacterium, read-out: MIC M. avium-intracellulare Complex (n = 10)): > 16 µg/mL | MIC [6, 8]: 0.25 µg/mL (≈ 1.82 µM)
